System: TNF-α production in RAW264.7 cells
Format: cell-based, murine
Conditions: 30 μg/mL, 15 minutes pre-incubation, 4 hours

## EEYFMYRGLLGLRIKYG [Peptide P7]
  NCE-stimulated TNF-α production compared to control peptide: significantly inhibited
